{
  "source": "PubChem BioAssay AID1259409",
  "about": "(Chemical Carcinogenesis Research Information System (CCRIS), 2018)",
  "origin": "cited, not measured here",
  "tested_on": "rodent chemically induced tumor inhibition, incidence and multiplicity",
  "experiment": "CCRIS tumor inhibitor studies",
  "conditions": "Promoter: NONE USED",
  "data": [
    {"smiles": "COc1ccc2c(c1)c(CC(=O)O)c(C)n2C(=O)c1ccc(Cl)cc1", "values": [
      {"measurement": "tumour outcome (control, treated, inhibition, significance)", "setting": "Carcinogen: N-ETHYL-N-NITROSOUREA, 759-73-9, Dose [Inhibitor]: 0, 20 MG/L IN DRINKING WATER FOR 12 MO ADMINISTERED TO OFFSPRING OF CARCINOGEN-TREATED MOTHERS (STUDY DURATION: 12 MO), Route [Inhibitor]: ORAL, Species: RAT, Strain/Sex: ALBINO/MALE, FEMALE, Target Tissue: Type of Lesion: PERIPHERAL NERVES: TUMOR, Dose [Carcinogen]: 75 MG/KG BW ADMINISTERED INTRAPERITONEALLY TO MOTHERS 21 D POST CONCEPTION", "value": "13/42 (31%), 3/25 (12%), 61%, not significant"},
      {"measurement": "tumour outcome (control, treated, inhibition, significance)", "setting": "Carcinogen: N-ETHYL-N-NITROSOUREA, 759-73-9, Dose [Inhibitor]: 0, 20 MG/L IN DRINKING WATER FOR 12 MO ADMINISTERED TO OFFSPRING OF CARCINOGEN-TREATED MOTHERS (STUDY DURATION: 12 MO), Route [Inhibitor]: ORAL, Species: RAT, Strain/Sex: ALBINO/MALE, FEMALE, Target Tissue: Type of Lesion: SPINAL CHORD: TUMOR, Dose [Carcinogen]: 75 MG/KG BW ADMINISTERED INTRAPERITONEALLY TO MOTHERS 21 D POST CONCEPTION", "value": "11/42 (26%), 4/25 (16%), 38%, not significant"},
      {"measurement": "tumour outcome (control, treated, inhibition, significance)", "setting": "Carcinogen: N-METHYL-N-NITROSOUREA, 684-93-5, Dose [Inhibitor]: 2.5 MG/KG BW FOR 10 WK STARTING 21 WK POST CARCINOGEN TREATMENT (STUDY DURATION: 35 WK), Route [Inhibitor]: INTRAPERITONEAL, Species: RAT, Strain/Sex: CD/F344/FEMALE, Target Tissue: Type of Lesion: COLON: ADENOCARCINOMA, Dose [Carcinogen]: 2 MG 3/WK FOR 5 WK", "value": "6/9 (67%), 6/9 (67%), 0%, not significant"},
      {"measurement": "tumour outcome (control, treated, inhibition, significance)", "setting": "Carcinogen: N-METHYL-N-NITROSOUREA, 684-93-5, Dose [Inhibitor]: 2.5 MG/KG BW FOR 15 WK STARTING 5 WK POST CARCINOGEN TREATMENT (STUDY DURATION: 26 WK), Route [Inhibitor]: INTRAPERITONEAL, Species: RAT, Strain/Sex: CD/F344/FEMALE, Target Tissue: Type of Lesion: COLON: ADENOCARCINOMA, Dose [Carcinogen]: 2 MG 3/WK FOR 5 WK", "value": "20/30 (67%), 9/29 (31%), 54%, p<0.02"},
      {"measurement": "tumour outcome (control, treated, inhibition, significance)", "setting": "Carcinogen: N-METHYL-N-NITROSOUREA, 684-93-5, Dose [Inhibitor]: 2.5 MG/KG BW FOR 15 WK STARTING 5 WK POST CARCINOGEN TREATMENT FOLLOWED BY 10 WK CESSATION OF TREATMENT (STUDY DURATION:, Route [Inhibitor]: INTRAPERITONEAL, Species: RAT, Strain/Sex: CD/F344/FEMALE, Target Tissue: Type of Lesion: COLON: ADENOCARCINOMA, Dose [Carcinogen]: 2 MG 3/WK FOR 5 WK", "value": "6/9 (67%), 7/9 (78%), -16%, not significant"},
      {"measurement": "tumour outcome (control, treated, inhibition, significance)", "setting": "Carcinogen: N-METHYL-N-NITROSOUREA, 684-93-5, Dose [Inhibitor]: 10 UG/ML TAP WATER FOR 15 WK STARTING 10 WK AFTER THE START OF CARCINOGEN TREATMENT AND CONTINUING THROUGH END OF STUDY, Route [Inhibitor]: ORAL, Species: RAT, Strain/Sex: CD-FISCHER/FEMALE, Target Tissue: Type of Lesion: LARGE INTESTINE: ADENOCARCINOMA, Dose [Carcinogen]: 2 MG 3/WK FOR 5 WK", "value": "18/27 (67%), 4/28 (14%), 79%, p<0.01"},
      {"measurement": "tumour outcome (control, treated, inhibition, significance)", "setting": "Carcinogen: N-METHYL-N-NITROSOUREA, 684-93-5, Dose [Inhibitor]: 20 UG/ML TAP WATER FOR 15 WK STARTING 10 WK AFTER THE START OF CARCINOGEN TREATMENT AND CONTINUING THROUGH END OF STUDY, Route [Inhibitor]: ORAL, Species: RAT, Strain/Sex: CD-FISCHER/FEMALE, Target Tissue: Type of Lesion: LARGE INTESTINE: ADENOCARCINOMA, Dose [Carcinogen]: 2 MG 3/WK FOR 5 WK", "value": "18/27 (67%), 4/24 (17%), 75%, p<0.01"},
      {"measurement": "tumour outcome (control, treated, inhibition, significance)", "setting": "Carcinogen: N-NITROSOMETHYLUREA, 684-93-5, Dose [Inhibitor]: 0, 0.001% IN DRINKING WATER FOR STUDY DAYS 1 TO 8 (STUDY DURATION: 31 WK), Route [Inhibitor]: ORAL, Species: RAT, Strain/Sex: SPRAGUE-DAWLEY/MALE, Target Tissue: Type of Lesion: LARGE BOWEL: ADENOCARCINOMA, Dose [Carcinogen]: 4 MG ON D 3, 5 AND 7 OF STUDY", "value": "26/29 (90%), 20/30 (67%), 26%, not significant"},
      {"measurement": "tumour outcome (control, treated, inhibition, significance)", "setting": "Carcinogen: UVB IRRADIATION, Dose [Inhibitor]: 700 NMOL IN 0.1 ML ACETONE 5/WK FOR 4 WK IMMEDIATELY AFTER EACH EXPOSURE TO UVB FOLLOWED BY 48 WK OBSERVATION PERIOD (ST, Route [Inhibitor]: DERMAL, Species: MOUSE, Strain/Sex: SKH/HRL/FEMALE, Target Tissue: Type of Lesion: SKIN: TUMOR, Dose [Carcinogen]: 0.3 KJ/SQM ON FIRST DAY, 0.6 KJ/SQM ON SECOND DAY THEN 0.9 KJ/SQM UVB ADMINISTERED 5 D/WK FOR 4 WK", "value": "8/27 (30%), 6/26 (23%), 23%, not significant"},
      {"measurement": "tumour outcome (control, treated, inhibition, significance)", "setting": "Dose [Inhibitor]: 0, 0.005% IN DIET FOR DURATION OF STUDY BEGINNING SIMULTANEOUSLY WITH CARCINOGEN TREATMENT (STUDY DURATION: 40 WK), Route [Inhibitor]: ORAL, Species: RAT, Strain/Sex: WISTAR/MALE, Target Tissue: Type of Lesion: COLON: TUMOR, Dose [Carcinogen]: 1 ML OF 0.1% DISTILLED WATER SOLUTION 1/D FOR 14 D", "value": "27/33 (82%), 5/18 (28%), 66%, p<0.01"}
    ]}
  ]
}
